Results taken from patent US20230114728A1 (Venatorx Pharmaceuticals, Inc., priority 2019, published 2023).
Converted amounts (≈) assume the structure as drawn.

Experiments:
Type in all cases: cell-based
[1] = test system: K. pneumoniae 848844 producing SHV-11 and KPC-2; assay: Broth microdilution MIC in CAMHB; conditions: Klebsiella pneumoniae, read-out: Minimum Inhibitory Concentration, K. pneumoniae 848844
Method in brief: (§1)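 Per CLSI broth microdilution, colonies were grown 3-5 h at 37° C in cation-adjusted Mueller Hinton broth, then diluted to a starting inoculum of 2-8×10^5 CFU/mL against 2-fold serial compound dilutions. Plates were incubated 16-20 h at 37° C, and MIC was read visually as the lowest concentration with no growth.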

[2] = test system: K. pneumoniae UMM producing SHV-5 and KPC-2; assay: Broth microdilution MIC in CAMHB; conditions: Klebsiella pneumoniae, read-out: Minimum Inhibitory Concentration, K. pneumoniae UMM
Method in brief: as §1

A. baumannii ATCC 19606 = assay: Broth microdilution MIC in CAMHB; conditions: Acinetobacter baumannii, ATCC19606; MHB; read-out: Minimum Inhibitory Concentration, A. baumannii ATCC 19606
Method in brief: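 Colonies from cation-adjusted Mueller Hinton agar are grown in broth (3-5 h, 37° C), adjusted by OD600, and added at 2-8×10^5 CFU/mL to 2-fold compound dilutions. After 16-20 h at 37° C, the lowest concentration without growth is taken as MIC.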

[3] = test system: P. aeruginosa (ΔmexAB-oprM); assay: Broth microdilution MIC in CAMHB; conditions: Pseudomonas aeruginosa, read-out: Minimum Inhibitory Concentration, P. aeruginosa ΔmexAB-OprM
Method in brief: as §1

E. coli 901C = assay: Broth microdilution MIC in CAMHB; conditions: Escherichia coli; E. coli 901C (hyper-permeable); MHB; read-out: Minimum Inhibitory Concentration, E. coli 901C
Method in brief: as §1

P. aeruginosa ATCC 35151 = assay: Broth microdilution MIC in CAMHB; conditions: Pseudomonas aeruginosa, ATCC35151; MHB; hyper-permeable strain; read-out: Minimum Inhibitory Concentration, P. aeruginosa ATCC 35151
Method in brief: as §1

P. aeruginosa ATCC 27853 = assay: Broth microdilution MIC in CAMHB; conditions: Pseudomonas aeruginosa, ATCC27853; MHB; read-out: Minimum Inhibitory Concentration, P. aeruginosa ATCC 27853
Method in brief: as §1

E. coli AG100A = assay: Broth microdilution MIC in CAMHB; conditions: Escherichia coli, read-out: Minimum Inhibitory Concentration, E. coli AG100A
Method in brief: as §1

E. coli AG100 = assay: Broth microdilution MIC in CAMHB; conditions: Escherichia coli; E. coli AG100 (wild-type parent); MHB; read-out: Minimum Inhibitory Concentration, E. coli AG100
Method in brief: as §1

[4] = test system: K. pneumoniae SI-117 producing VIM-1; assay: Broth microdilution MIC in CAMHB; conditions: Klebsiella pneumoniae, read-out: Minimum Inhibitory Concentration, K. pneumoniae SI-117
Method in brief: as §1

E. coli ATCC 25922 = assay: Broth microdilution MIC in CAMHB; conditions: Escherichia coli, ATCC25922; E. coli ATCC 25922; MHB; read-out: Minimum Inhibitory Concentration, E. coli 25922
Method in brief: as §1

E. coli D22 = assay: Broth microdilution MIC in CAMHB; conditions: Escherichia coli; E. coli D22 (hyper-permeable); MHB; read-out: Minimum Inhibitory Concentration, E. coli D22
Method in brief: as §1

N. gonorrhoeae WHO Z = assay: Liquid broth MIC in Fastidious broth; conditions: Neisseria gonorrhoeae, read-out: Minimum Inhibitory Concentration, N. gonorrhoeae WHO Z
Method in brief: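 Broth microdilution against gonococcal strains expressing mosaic PBP2, starting inoculum 5×10^5 CFU/mL in Fastidious broth. Incubation runs ~24 h at 36 °C under 5% CO2, with MIC scored visually at <10% of full growth.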

Compound: NCCN1CCN(C(=O)NC(C(=O)N[C@H]2Cc3cccc(C(=O)O)c3OB2O)c2cc(F)c(O)cc2F)C(=O)C1=O (stereo partly drawn) [Example 93, (3R)-3-(2-(4-(2-aminoethyl)-2,3-dioxopiperazine-1-carboxamido)-2-(2,5-difluoro-4-hydroxyphenyl)acetamido)-2-hydroxy-3,4-dihydro-2H-benzo[e][1,2]oxaborinine-8-carboxylic acid]
- MIC [1]: 32 to 64 mg/L (≈ 55.6 to 111 µM)
- MIC [2]: 8 to 16 mg/L (≈ 13.9 to 27.8 µM)
- MIC (A. baumannii ATCC 19606): > 128 mg/L
- MIC [3]: 32 to 64 mg/L (≈ 55.6 to 111 µM)
- MIC (E. coli 901C): 0.5 to 1 mg/L (≈ 0.869 to 1.74 µM)
- MIC (P. aeruginosa ATCC 35151): 0.5 to 1 mg/L (≈ 0.869 to 1.74 µM)
- MIC (P. aeruginosa ATCC 27853): > 128 mg/L
- MIC (E. coli AG100A): 2 to 4 mg/L (≈ 3.48 to 6.95 µM)
- MIC (E. coli AG100): 8 to 16 mg/L (≈ 13.9 to 27.8 µM)
- MIC [4]: 32 to 64 mg/L (≈ 55.6 to 111 µM)
- MIC (E. coli ATCC 25922): 8 to 16 mg/L (≈ 13.9 to 27.8 µM)
- MIC (E. coli D22): 2 to 4 mg/L (≈ 3.48 to 6.95 µM)
- MIC (N. gonorrhoeae WHO Z): > 64 mg/L

Compound: CCN1CCN(C(=O)NC(C(=O)N[C@H]2Cc3cccc(C(=O)O)c3OB2O)c2cccc(NC(=O)c3cccnc3)c2)C(=O)C1=O (stereo partly drawn) [Example 97, (3R)-3-(2-(4-ethyl-2,3-dioxopiperazine-1-carboxamido)-2-(3-(nicotinamido)phenyl)acetamido)-2-hydroxy-3,4-dihydro-2H-benzo[e][1,2]oxaborinine-8-carboxylic acid]
- MIC [1]: > 128 mg/L
- MIC [2]: > 128 mg/L
- MIC (A. baumannii ATCC 19606): > 128 mg/L
- MIC [3]: 32 to 64 mg/L (≈ 50.9 to 102 µM)
- MIC (E. coli 901C): 0.5 to 1 mg/L (≈ 0.796 to 1.59 µM)
- MIC (P. aeruginosa ATCC 35151): 8 to 16 mg/L (≈ 12.7 to 25.5 µM)
- MIC (P. aeruginosa ATCC 27853): > 128 mg/L
- MIC (E. coli AG100A): 8 to 16 mg/L (≈ 12.7 to 25.5 µM)
- MIC (E. coli AG100): > 128 mg/L
- MIC [4]: > 128 mg/L
- MIC (E. coli ATCC 25922): > 128 mg/L
- MIC (E. coli D22): 8 to 16 mg/L (≈ 12.7 to 25.5 µM)
- MIC (N. gonorrhoeae WHO Z): > 64 mg/L

Compound: CCN1CCN(C(=O)N[C@@H](C(=O)N[C@H]2Cc3cccc(C(=O)O)c3OB2O)c2cc(Cl)c(O)cc2Cl)C(=O)C1=O (single isomer, unassigned) [Example 91]
- MIC [1]: > 128 mg/L
- MIC [2]: 32 to 64 mg/L (≈ 53.9 to 108 µM)
- MIC (A. baumannii ATCC 19606): > 128 mg/L
- MIC [3]: 32 to 64 mg/L (≈ 53.9 to 108 µM)
- MIC (E. coli 901C): < 0.25 mg/L
- MIC (P. aeruginosa ATCC 35151): 0.5 to 1 mg/L (≈ 0.843 to 1.69 µM)
- MIC (P. aeruginosa ATCC 27853): > 128 mg/L
- MIC (E. coli AG100A): 2 to 4 mg/L (≈ 3.37 to 6.74 µM)
- MIC (E. coli AG100): 8 to 16 mg/L (≈ 13.5 to 27 µM)
- MIC [4]: > 128 mg/L
- MIC (E. coli ATCC 25922): 32 to 64 mg/L (≈ 53.9 to 108 µM)
- MIC (E. coli D22): 2 to 4 mg/L (≈ 3.37 to 6.74 µM)
- MIC (N. gonorrhoeae WHO Z): 16 to 32 mg/L (≈ 27 to 53.9 µM)

Compound: CCN1CCN(C(=O)NC(C(=O)N[C@H]2Cc3cccc(C(=O)O)c3OB2O)c2ccc(C(N)=O)c(O)c2)C(=O)C1=O (stereo partly drawn) [Example 45, (3R)-3-(2-(4-carbamoyl-3-hydroxyphenyl)-2-(4-ethyl-2,3-dioxopiperazine-1-carboxamido)acetamido)-2-hydroxy-3,4-dihydro-2H-benzo[e][1,2]oxaborinine-8-carboxylic acid]
- MIC [1]: > 128 mg/L
- MIC [2]: 32 to 64 mg/L (≈ 56.4 to 113 µM)
- MIC (A. baumannii ATCC 19606): > 128 mg/L
- MIC [3]: 2 to 4 mg/L (≈ 3.53 to 7.05 µM)
- MIC (E. coli 901C): 2 to 4 mg/L (≈ 3.53 to 7.05 µM)
- MIC (P. aeruginosa ATCC 35151): < 0.25 mg/L
- MIC (P. aeruginosa ATCC 27853): > 128 mg/L
- MIC (E. coli AG100A): 2 to 4 mg/L (≈ 3.53 to 7.05 µM)
- MIC (E. coli AG100): 32 to 64 mg/L (≈ 56.4 to 113 µM)
- MIC [4]: > 128 mg/L
- MIC (E. coli ATCC 25922): 32 to 64 mg/L (≈ 56.4 to 113 µM)
- MIC (E. coli D22): < 0.25 mg/L
- MIC (N. gonorrhoeae WHO Z): 16 to 32 mg/L (≈ 28.2 to 56.4 µM)

Compound: CCN1CCN(C(=O)N[C@H](C(=O)N[C@H]2Cc3cccc(C(=O)O)c3OB2O)c2cc(Cl)c(O)cc2Cl)C(=O)C1=O (single isomer, unassigned) [Example 92]
- MIC [1]: > 128 mg/L
- MIC [2]: > 128 mg/L
- MIC (A. baumannii ATCC 19606): > 128 mg/L
- MIC [3]: > 128 mg/L
- MIC (E. coli 901C): 2 to 4 mg/L (≈ 3.37 to 6.74 µM)
- MIC (P. aeruginosa ATCC 35151): 8 to 16 mg/L (≈ 13.5 to 27 µM)
- MIC (P. aeruginosa ATCC 27853): > 128 mg/L
- MIC (E. coli AG100A): > 128 mg/L
- MIC (E. coli AG100): > 128 mg/L
- MIC [4]: > 128 mg/L
- MIC (E. coli ATCC 25922): > 128 mg/L
- MIC (E. coli D22): > 128 mg/L
- MIC (N. gonorrhoeae WHO Z): > 64 mg/L

Compound: CCN1CCN(C(=O)NC(C(=O)N[C@H]2Cc3cccc(C(=O)O)c3OB2O)c2cccc(S(N)(=O)=O)c2)C(=O)C1=O (stereo partly drawn) [Example 99, (3R)-3-(2-(4-ethyl-2,3-dioxopiperazine-1-carboxamido)-2-(3-sulfamoylphenyl)acetamido)-2-hydroxy-3,4-dihydro-2H-benzo[e][1,2]oxaborinine-8-carboxylic acid]
- MIC [1]: 32 to 64 mg/L (≈ 54.5 to 109 µM)
- MIC [2]: 32 to 64 mg/L (≈ 54.5 to 109 µM)
- MIC (A. baumannii ATCC 19606): > 128 mg/L
- MIC [3]: 8 to 16 mg/L (≈ 13.6 to 27.2 µM)
- MIC (E. coli 901C): < 0.25 mg/L
- MIC (P. aeruginosa ATCC 35151): 2 to 4 mg/L (≈ 3.4 to 6.81 µM)
- MIC (P. aeruginosa ATCC 27853): > 128 mg/L
- MIC (E. coli AG100A): 2 to 4 mg/L (≈ 3.4 to 6.81 µM)
- MIC (E. coli AG100): 32 to 64 mg/L (≈ 54.5 to 109 µM)
- MIC [4]: 32 to 64 mg/L (≈ 54.5 to 109 µM)
- MIC (E. coli ATCC 25922): 32 to 64 mg/L (≈ 54.5 to 109 µM)
- MIC (E. coli D22): 2 to 4 mg/L (≈ 3.4 to 6.81 µM)
- MIC (N. gonorrhoeae WHO Z): 16 to 32 mg/L (≈ 27.2 to 54.5 µM)
